Experimental data: patent publication US6995170B1, “Semi-hydrochloride of 8-cyano-1-cyclopropyl-7-(1S,6S-2,8-diazabicyclo[4.3.0]nonan-8-yl)-6-fluoro-1, 4-dihydro-4-oxo-3-quinolinecarboxylic acid” (Bayer Aktiengesellschaft, priority 1998, dated 2006)
Structures can show the parent of a compound that is named as a salt.

Experiment: Solubility in water (strength of solutions that can be prepared)

Row | SMILES | strength of solutions in water that can be prepared (solubility in water)
1 | N#Cc1c(N2C[C@@H]3CCCN[C@@H]3C2)c(F)cc2c(=O)c(C(=O)O)cn(C3CC3)c12 [CCDC, 8-Cyano-1-cyclopropyl-7-(1S,6S-2,8-diazabicyclo[4.3.0]nonan-8-yl)-6-fluoro-1,4-dihydro-4-oxo-3-quinolinecarboxylic acid] | about 0.02 % (w/w)
2 | N#Cc1c(N2C[C@@H]3CCCN[C@@H]3C2)c(F)cc2c(=O)c(C(=O)O)cn(C3CC3)c12 [CCDC hydrochloride] | approximately 2.8 % (w/w)
